{"source": "paper PMC7918738", "about": "“Microtubule Destabilizing Sulfonamides as an Alternative to Taxane-Based Chemotherapy” (International Journal of Molecular Sciences, 2021)", "key": {"[1]": {"system": "MCF7 cells", "experiment": "Annexin V-FITC/PI cell death quantification in MCF7", "assay_type": "cell-based, human", "conditions": "38 600 nM, 42 50 nM, 45 400 nM; for Annexin V-FITC/PI 72 h LA (late apoptosis) / Annexin V-FITC/PI 72 h Necrosis / Annexin V-FITC/PI 72 h EA (early apoptosis) / Annexin V-FITC/PI 72 h Live / Annexin V-FITC/PI 6 Days LA (late apoptosis) / Annexin V-FITC/PI 6 Days Necrosis / Annexin V-FITC/PI 6 Days EA (early apoptosis) / Annexin V-FITC/PI 6 Days Live: CA-4 50 nM; for Annexin V-FITC/PI 6 Days LA (late apoptosis) / Annexin V-FITC/PI 6 Days Necrosis / Annexin V-FITC/PI 6 Days EA (early apoptosis) / Annexin V-FITC/PI 6 Days Live: MCF7, 6 days", "description": "(§1) To determine whether the cytotoxic/antiproliferative effect of the MDS was due to apoptosis induction, cells were treated with variable concentrations of the drug for 72 h or 6 days, stained with Annexin V-FITC (AnV) and propidium iodide (PI), and analyzed by flow cytometry. Double negative cells (AnV^−/PI^−) were classified as live cells (L), cells positive for AnV and negative for PI (AnV^+/PI^−) were considered in Early Apoptosis (EA), cells negative for AnV and positive for PI (AnV^−/PI^+) were considered necrotic (N), and double-positive cells (AnV^+/PI^+) as Late Apoptosis (LA). In all cases, the compounds were used at the same concentrations previously used in cell cycle studies (Table 5).\n(§2) MCF7, SKOV-3, and HeLa apoptotic cells were quantified using an Annexin V-FITC/PI apoptosis detection kit (Immunostep, Salamanca, Spain) according to the manufacturer’s guidelines. 1.5 mL/well of cells in the exponential growth phase at 2·10^4 cells/mL were seeded onto 12-well plates and left to attach overnight. After 24 h incubation, cells were treated with selected compounds. After 72 h (MCF7, SKOV-3, and HeLa) and 6 days (MCF7) post-treatment, attached and floating cells of treated and untreated wells were collected, centrifuged, resuspended in Annexin V binding buffer, and stained with Annexin V-FITC/PI. Cells were then incubated in darkness at room temperature for 15 min and a total of 30,000 cells were acquired and analyzed using the BD Accuri™ C6 Plus Flow Cytometer and Software (version 1.0.264.21, BD Biosciences, San José, CA, USA), respectively. Compounds were dissolved in DMSO and the final solvent concentration never exceeded 0.5% (v/v). Control wells included cells with 0.5% (v/v) DMSO."}, "[2]": {"system": "SKOV3 cells", "experiment": "Annexin V-FITC/PI cell death quantification in SKOV3", "assay_type": "cell-based, human", "conditions": "SKOV3, 72 h; 38 600 nM, 42 50 nM, 45 400 nM, paclitaxel 10 nM", "description": "as §1, §2"}, "[3]": {"system": "SKOV3 ovarian carcinoma cells", "experiment": "Antiproliferative activity against SKOV3 (MTT)", "assay_type": "cell-based", "conditions": "Homo sapiens, SK-OV-3, 72 h", "description": "The in vitro antiproliferative activity of compounds 38, 42, and 45 against a panel of five human ovarian carcinoma cell lines (SKOV3, IGROV-1, A2780, OVCAR-8, and OVCAR-3) was evaluated by a colorimetric method (Table 3) and compared with paclitaxel. […] For SKOV3, the potency reduction observed for paclitaxel together with a sustained or improved (42 with a 7 nM IC50 value) potency for MDS results in a more favorable profile of the MDS compared to paclitaxel.\nMCF7 (human breast carcinoma), SKOV-3 (human ovarian carcinoma), OVCAR-3 (human ovarian carcinoma), OVCAR-8 (human ovarian carcinoma), and HeLa (human cervical carcinoma) cell lines were cultured in Dulbecco’s Modified Eagle’s Medium (DMEM) (Gibco, Thermo Fischer Scientific) containing 10% (v/v) heat-inactivated fetal bovine serum (HIFBS) (Lonza-Cambrex, Karlskoga, Sweden), 2 mM L-glutamine (Lonza-Cambrex, Karlskoga, Sweden), 100 μg/mL streptomycin, and 100 IU/mL penicillin (Lonza-Cambrex) at 37 °C in humidified 95% air and 5% CO2. HT-29 (human colon carcinoma), IGROV-1 (human ovarian carcinoma), and A2780 (human ovarian carcinoma) cell lines were cultured in RPMI 1640 medium (Gibco, Thermo Fischer Scientific) supplemented with 10% HIFBS, 100 μg/mL streptomycin, and 100 IU/mL penicillin at 37 °C in humidified 95% air and 5% CO2 atmosphere. The presence of mycoplasma was routinely checked with MycoAlert kit (Lonza-Cambrex) and only mycoplasma-free cells were used in the experiments. Ovarian tumor cell lines were originally acquired from Dr Atanasio Pandiella from Centro de Investigación del Cáncer (CIC), Salamanca, Spain. HeLa, HT-29 and MCF7 tumor cell lines were provided by Dr Faustino Mollinedo from Centro de Investigaciones Biológicas Margarita Salas, Madrid, Spain.\nMCF7, HeLa, and HT-29 cell proliferation, when treated with the corresponding compounds, were determined using the XTT (sodium 3’-[1(phenylaminocarbonyl)-3,4-tetrazolium]-bis(4-methoxy-6-nitro)-benzenesulfonic acid hydrate) cell proliferation kit (Roche Molecular Biochemicals, Mannheim, Germany). […] The absorbance of the formazan product generated was measured at 450 nm using a multi-well plate reader. SKOV-3, OVCAR-3, OVCAR-8, IGROV-1, A-2780 cell proliferation, when treated with the corresponding compound, were determined using MTT (3-(4,5-dimethylthiazol-2-yl)-2,5-diphenyl-2H-tetrazolium bromide) (Sigma-Aldrich, St. Louis, MO, USA). […] Absorbance was measured at 570 nm in a plate reader (Ultra Evolution, Tecan, Männedorf, Suiza). […] After 24 h incubation, to allow cells to attach to the plates, all compounds were added at 1 µM concentration and the effect on the proliferation was evaluated 72 h post-treatment. […]"}}, "note": "Where “and” joins values, the source holds several entries; their conditions need not be identical. Equal entries are not always repeated.", "data": [{"smiles": "COc1ccc(/C=C\\c2cc(OC)c(OC)c(OC)c2)cc1O", "note": "[Combretastatin A-4, reference compound]", "values": [{"measurement": "Annexin V-FITC/PI 72 h LA (late apoptosis)", "setting": "[1]; MCF7, 72 h", "result": 3.3, "unit": "%"}, {"measurement": "Annexin V-FITC/PI 72 h Necrosis", "setting": "[1]; MCF7, 72 h", "result": 6.7, "unit": "%"}, {"measurement": "Annexin V-FITC/PI 72 h EA (early apoptosis)", "setting": "[1]; MCF7, 72 h, listed as CA-4", "result": "32% and 31.7%"}, {"measurement": "Annexin V-FITC/PI 72 h Live", "setting": "[1]; MCF7, 72 h, listed as CA-4", "result": "58% and 58.3%"}, {"measurement": "Annexin V-FITC/PI 6 Days LA (late apoptosis)", "setting": "[1]", "result": 2.7, "unit": "%"}, {"measurement": "Annexin V-FITC/PI 6 Days Necrosis", "setting": "[1]", "result": 0.4, "unit": "%"}, {"measurement": "Annexin V-FITC/PI 6 Days EA (early apoptosis)", "setting": "[1]; listed as CA-4", "result": 52.4, "unit": "%"}, {"measurement": "Annexin V-FITC/PI 6 Days Live", "setting": "[1]; listed as CA-4", "result": 44.5, "unit": "%"}]}, {"smiles": "CNc1ccc(S(=O)(=O)N(C)c2cc(OC)c(OC)c(OC)c2)cc1", "note": "[Compound 38]", "values": [{"measurement": "Annexin V-FITC/PI 72 h EA (early apoptosis)", "setting": "[2]", "result": "31% and 30.5%"}, {"measurement": "Annexin V-FITC/PI 72 h LA (late apoptosis)", "setting": "[2]", "result": 5.4, "unit": "%"}, {"measurement": "Annexin V-FITC/PI 72 h Live", "setting": "[2]", "result": 62.3, "unit": "%"}, {"measurement": "Annexin V-FITC/PI 72 h Necrosis", "setting": "[2]", "result": 1.8, "unit": "%"}, {"measurement": "IC50", "setting": "[3]", "result": 46, "unit": "nM"}, {"measurement": "Annexin V-FITC/PI 72 h EA (early apoptosis)", "setting": "[1]; MCF7, 72 h", "result": 29, "unit": "%"}, {"measurement": "Annexin V-FITC/PI 72 h LA (late apoptosis)", "setting": "[1]; MCF7, 72 h", "result": 5.4, "unit": "%"}, {"measurement": "Annexin V-FITC/PI 72 h Live", "setting": "[1]; MCF7, 72 h", "result": "60% and 60.5%"}, {"measurement": "Annexin V-FITC/PI 72 h Necrosis", "setting": "[1]; MCF7, 72 h", "result": 5.1, "unit": "%"}, {"measurement": "Annexin V-FITC/PI 6 Days EA (early apoptosis)", "setting": "[1]", "result": 45.0, "unit": "%"}, {"measurement": "Annexin V-FITC/PI 6 Days LA (late apoptosis)", "setting": "[1]", "result": 2.7, "unit": "%"}, {"measurement": "Annexin V-FITC/PI 6 Days Live", "setting": "[1]", "result": 52.0, "unit": "%"}, {"measurement": "Annexin V-FITC/PI 6 Days Necrosis", "setting": "[1]", "result": 0.3, "unit": "%"}]}, {"smiles": "COc1ccc(S(=O)(=O)N(C)c2cc(OC)c(OC)c(OC)c2)cc1N", "note": "[Compound 42]", "values": [{"measurement": "Annexin V-FITC/PI 72 h EA (early apoptosis)", "setting": "[2]", "result": 12.2, "unit": "%"}, {"measurement": "Annexin V-FITC/PI 72 h LA (late apoptosis)", "setting": "[2]", "result": 2.0, "unit": "%"}, {"measurement": "Annexin V-FITC/PI 72 h Live", "setting": "[2]", "result": 85.1, "unit": "%"}, {"measurement": "Annexin V-FITC/PI 72 h Necrosis", "setting": "[2]", "result": 0.7, "unit": "%"}, {"measurement": "IC50", "setting": "[3]", "result": 7, "unit": "nM"}, {"measurement": "Phosphatidylserine exposure (Annexin V-positive MCF7 cells)", "setting": "[1]; MCF7, 72 h", "result": 11, "unit": "%"}, {"measurement": "Annexin V-FITC/PI 72 h EA (early apoptosis)", "setting": "[1]; MCF7, 72 h", "result": "9% and 8.5%"}, {"measurement": "Annexin V-FITC/PI 72 h LA (late apoptosis)", "setting": "[1]; MCF7, 72 h", "result": 2.3, "unit": "%"}, {"measurement": "Annexin V-FITC/PI 72 h Live", "setting": "[1]; MCF7, 72 h", "result": "88% and 87.7%"}, {"measurement": "Annexin V-FITC/PI 72 h Necrosis", "setting": "[1]; MCF7, 72 h", "result": 1.4, "unit": "%"}, {"measurement": "Annexin V-FITC/PI 6 Days EA (early apoptosis)", "setting": "[1]", "result": "19% and 18.9%"}, {"measurement": "Annexin V-FITC/PI 6 Days LA (late apoptosis)", "setting": "[1]", "result": 1.7, "unit": "%"}, {"measurement": "Annexin V-FITC/PI 6 Days Live", "setting": "[1]", "result": "79% and 79.1%"}, {"measurement": "Annexin V-FITC/PI 6 Days Necrosis", "setting": "[1]", "result": 0.3, "unit": "%"}]}, {"smiles": "COc1ccc(S(=O)(=O)N(Cc2ccccc2)c2cc(OC)c(OC)c(OC)c2)cc1N", "note": "[Compound 45]", "values": [{"measurement": "Annexin V-FITC/PI 72 h EA (early apoptosis)", "setting": "[2]", "result": "23% and 23.4%"}, {"measurement": "Annexin V-FITC/PI 72 h LA (late apoptosis)", "setting": "[2]", "result": 2.6, "unit": "%"}, {"measurement": "Annexin V-FITC/PI 72 h Live", "setting": "[2]", "result": 72.7, "unit": "%"}, {"measurement": "Annexin V-FITC/PI 72 h Necrosis", "setting": "[2]", "result": 1.3, "unit": "%"}, {"measurement": "IC50", "setting": "[3]", "result": 48, "unit": "nM"}, {"measurement": "Annexin V-FITC/PI 72 h EA (early apoptosis)", "setting": "[1]; MCF7, 72 h", "result": "20% and 20.1%"}, {"measurement": "Annexin V-FITC/PI 72 h LA (late apoptosis)", "setting": "[1]; MCF7, 72 h", "result": 7.5, "unit": "%"}, {"measurement": "Annexin V-FITC/PI 72 h Live", "setting": "[1]; MCF7, 72 h", "result": "71% and 70.5%"}, {"measurement": "Annexin V-FITC/PI 72 h Necrosis", "setting": "[1]; MCF7, 72 h", "result": 1.9, "unit": "%"}, {"measurement": "Annexin V-FITC/PI 6 Days EA (early apoptosis)", "setting": "[1]", "result": 39.3, "unit": "%"}, {"measurement": "Annexin V-FITC/PI 6 Days LA (late apoptosis)", "setting": "[1]", "result": 3.8, "unit": "%"}, {"measurement": "Annexin V-FITC/PI 6 Days Live", "setting": "[1]", "result": 56.7, "unit": "%"}, {"measurement": "Annexin V-FITC/PI 6 Days Necrosis", "setting": "[1]", "result": 0.3, "unit": "%"}]}]}
